According to patent publication US8871681B2, “Herbicidal compositions comprising 4-amino-3-chloro-5-fluoro-6-(4-chloro-2-fluoro-3-methoxyphenyl) pyridine-2-carboxylic acid or a derivative thereof and certain sulfonylureas” (Dow AgroSciences LLC, priority 2012, dated 2014):

What was measured:
[1] = test system: DIGSA (Digitaria sanguinalis, large crabgrass); assay: Postemergence foliar-applied weed control, direct seeded rice, greenhouse (Example I); type: in vivo, Digitaria sanguinalis (L.) Scop.; details: for Visual Weed Control (%) - 21 DAA DIGSA Obs: Table 27, foliar-applied
In short: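 Greenhouse-grown plants in loam/sandy loam–grit soil (14 h photoperiod, ~29/26 °C) were sprayed postemergence at the first to fourth true leaf stage. Compound A (acid equivalent basis) and ALS-inhibiting sulfonylureas (active ingredient basis) were applied alone and in combination in 1.25% (v/v) crop oil concentrate at 187 L/ha by track sprayer; controls received solvent blank.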

[2] = test system: SCPJU (Schoenoplectus juncoides, Japanese bulrush); assay: as above; type: in vivo, Schoenoplectus juncoides (Roxb.) Palla; details: 21 DAA
Description: Seeds or nutlets of the desired test plant species were planted in a soil matrix prepared by mixing a loam or sandy loam soil (e.g., 28.6 percent silt, 18.8 percent clay, and 52.6 percent sand, with a pH of about 5.8 and an organic matter content of about 1.8 percent) and calcareous grit in an 80 to 20 ratio. The soil matrix was contained in plastic pots with a volume of 1 quart and a surface area of 83.6 square centimeters (cm^2). When required to ensure good germination and healthy plants, a fungicide treatment and/or other chemical or physical treatment was applied. The plants were grown for 8-22 days in a greenhouse with an approximate 14 h photoperiod which was maintained at about 29° C. during the day and 26° C. during the night. Nutrients (Peters Excel® 15-5-15 5-Ca 2-Mg and iron chelate) were applied in the irrigation solution as needed and water was added on a regular basis. Supplemental lighting was provided with overhead metal halide 1000-Watt lamps as necessary. The plants were employed for testing when they reached the first through fourth true leaf stage.
Treatments consisted of the acid or esters of 4-amino-3-chloro-5-fluoro-6-(4-chloro-2-fluoro-3-methoxy-phenyl)pyridine-2-carboxylic acid (Compound A), each formulated as an SC, and various herbicidal components alone and in combination. Forms of compound A were applied on an acid equivalent basis. […]
Treatment requirements were calculated based upon the rates being tested, the concentration of active ingredient or acid equivalent in the formulation, and a 12 mL application volume at a rate of 187 L/ha.
For treatments comprised of formulated compounds, measured amounts of compounds were placed individually in 25 mL glass vials and diluted in a volume of 1.25% (v/v) Agri-Dex® crop oil concentrated to obtain 12× stock solutions. […]
For treatments comprised of formulated and technical compounds, weighed amounts of the technical materials were placed individually in 25 mL glass vials and dissolved in a volume of 97:3 v/v acetone/DMSO to obtain 12× stock solutions, and measured amounts of the formulated compounds were placed individually in 25 mL glass vials and diluted in a volume of 1.25% (v/v) crop oil concentrate to obtain 12× stock solutions. […]

[3] = test system: LAMPU (Lamium purpureum, purple deadnettle); assay: Post-emergence foliar-applied weed control in cereal crops, greenhouse (Example III); type: in vivo, Lamium purpureum (L.)
Experimental: Seeds of the desired test plant species were planted in Sun Gro MetroMix® 306 planting mixture, which typically has a pH of 6.0 to 6.8 and an organic matter content of about 30 percent, in plastic pots with a surface area of 103.2 square centimeters (cm^2). When required to ensure good germination and healthy plants, a fungicide treatment and/or other chemical or physical treatment was applied. The plants were grown for 7-36 days in a greenhouse with an approximate 14 hour photoperiod which was maintained at about 18° C. during the day and 17° C. during the night. Nutrients and water were added on a regular basis and supplemental lighting was provided with overhead metal halide 1000-Watt lamps as necessary. The plants were employed for testing when they reached the second or third true leaf stage.
Treatments consisted of the benzyl ester of 4-amino-3-chloro-5-fluoro-6-(4-chloro-2-fluoro-3-methoxy-phenyl)pyridine-2-carboxylic acid (Compound A), formulated as an SC (suspension concentrate), and a second cereal herbicide alone and in combination.
Measured aliquot of benzyl ester of 4-amino-3-chloro-5-fluoro-6-(4-chloro-2-fluoro-3-methoxy-phenyl)pyridine-2-carboxylic acid (Compound A) was placed in 25 milliliter (mL) glass vials and diluted in a volume of 1.25% (v/v) Agri-dex crop oil concentrated to obtain stock solutions. Compound requirements are based upon a 12 mL application volume at a rate of 187 liters per hectare (L/ha). Spray solutions of the second cereal herbicide and experimental compound mixtures were prepared by adding the stock solutions to the appropriate amount of dilution solution to form 12 mL spray solution with active ingredients in two- and three-way combinations. Formulated compounds were applied to the plant material with an overhead Mandel track sprayer equipped with an 8002E nozzle calibrated to deliver 187 L/ha over an application area of 0.503 square meters (m^2) at a spray height of 18 inches (46 cm) above average plant canopy. Control plants were sprayed in the same manner with the solvent blank.
The treated plants and control plants were placed in a greenhouse as described above and watered by sub-irrigation to prevent wash-off of the test compounds. After 20-22 days, the condition of the test plants as compared with that of the control plants was determined visually and scored on a scale of 0 to 100 percent where 0 corresponds to no injury and 100 corresponds to complete kill.
Colby's equation was used to determine the herbicidal effects expected from the mixtures (Colby, S. R. 1967. Calculation of the synergistic and antagonistic response of herbicide combinations. Weeds 15:20-22.).
The following equation was used to calculate the expected activity of mixtures containing two active ingredients, A and B: Expected=A+B−(A×B/100)

SMILES: COc1c(Cl)ccc(-c2nc(C(=O)O)c(Cl)c(N)c2F)c1F [Compound A Acid, 4-amino-3-chloro-5-fluoro-6-(4-chloro-2-fluoro-3-methoxy-phenyl)pyridine-2-carboxylic acid]
- Visual Weed Control (%) Obs ([1]; 20 DAA, 5.3 gae/ha): 10%
- Visual Weed Control (%) Obs ([1]; 24 DAA, 17.5 gae/ha): 25%

SMILES: COc1c(Cl)ccc(-c2nc(C(=O)OCc3ccccc3)c(Cl)c(N)c2F)c1F [Compound A Benzyl Ester]
- Visual Weed Control (%) Obs ([2]; 4.38 gae/ha): 40%
- Visual Weed Control (%) Obs ([1]; 20 DAA, 4.38 gae/ha): 20%
- Visual Weed Control (%) Obs ([1]; 20 DAA, 8.75 gae/ha): 15%
- Visual Weed Control (%) Obs ([1]; 20 DAA, 17.5 gae/ha): 20%
- Visual Weed Control (%) Obs ([1]; 22 DAA, 8 gae/ha): 20%
- Visual Weed Control (%) Obs ([1]; 22 DAA, 16 gae/ha): 20%
- Visual Weed Control (%) Obs ([1]; 22 DAA, 32 gae/ha): 35%
- Visual Weed Control (%) - 21 DAA DIGSA Obs ([1]; 8 gae/ha alone): 25%
- Visual Weed Control (%) - 21 DAA DIGSA Obs ([1]; 16 gae/ha alone): 30%
- Visual Weed Control (%) - 21 DAA DIGSA Obs ([1]; 32 gae/ha alone): 50%
- Weed Control LAMPU Obs ([3]; Table 51, after 20-22 days, 8.75 gai/ha alone): 83%
- Weed Control LAMPU Obs ([3]; Table 57, after 20-22 days, 8.75 gai/ha Compound A Benzyl Ester alone): 83%

SMILES: COCC(=O)OC(c1ncccc1S(=O)(=O)NC(=O)Nc1nc(OC)cc(OC)n1)C(C)F (centres unmarked) [Flucetosulfuron, 1-[3-[[[[(4,6-dimethoxy-2-pyrimidinyl)amino]carbonyl]amino]sulfonyl]-2-pyridinyl]-2-fluoropropyl 2-methoxyacetate]
- Visual Weed Control (%) Obs ([2]; 0.05 gai/ha): 95%
- Visual Weed Control (%) Obs ([2]; 0.1 gai/ha): 50%
- Visual Weed Control (%) Obs ([2]; 0.2 gai/ha): 30%
